Assays:
normal ICR mouse = assay: Oral glucose tolerance test (OGTT), acute hypoglycemic effect of single oral dose; type: in vivo
Description: Acute hypoglycemic effect of single dose through mouth on the normal ICR mouse
Animal: ICR mouse (8-10 weeks old, sex: male, weight: 25-30 g, purchased from Shanghai SLAC Laboratory Animal Center).
1. Two days before the experiment, the food consumption was recorded and the daily food consumption of each animal was calculated;
2. The animals fasted overnight (⅓ of daily food consumption was provided, about 2 g);
3. The blood glucose was measured on the second day.
4. The medicament was administrated through gavage (1 mouse/min). After 6 hours, the blood glucose was measured. Glucose was administrated through gavage according to the body weight (2.5 g/kg). The blood glucose value was monitored at 30 min, 60 min, 90 min, and 120 min after administration.

[1] = Safety evaluation: single dose 100 mg/kg by gavage, one week observation; type: in vivo, ICR mouse
Description: After grouping, each compound was administrated once through gavage according to the dose of 100 mg/kg at the same time.

[2] = normal ICR mouse, 100 mg/kg single dose, 7th day
[3] = normal ICR mouse, 100 mg/kg single dose, 1 d after administration
[4] = normal ICR mouse, 100 mg/kg single dose, 2 d after administration
[5] = normal ICR mouse, 100 mg/kg single dose, 3 d after administration
[6] = normal ICR mouse, 100 mg/kg single dose, 4 d after administration
[7] = normal ICR mouse, 100 mg/kg single dose, 5 d after administration
[8] = normal ICR mouse, 100 mg/kg single dose, 6 d after administration
[9] = normal ICR mouse, 100 mg/kg single dose, 7 d after administration
[10] = normal ICR mouse, 100 mg/kg single dose, before administration

**Q.** Which “hypoglycemic ability in vivo, oral glucose tolerance test after multiple single-dose administration” value (normal ICR mouse; single administration at multiple doses, FIGS. 11-12) does the source give for `COC(=O)c1cc2nc(N3CCCC(N)C3)n(Cc3ccccc3C#N)c(=O)c2s1` (stereo not drawn) [DC291407] here?
**A.** comparable to that of Alogliptin

**Q.** And the “hypoglycemic ability in vivo, oral glucose tolerance test” value (normal ICR mouse; single dose 3 mg/kg by gavage, glucose 2.5 g/kg after 6 hours, FIGS. 7-10)?
**A.** comparable to that of Alogliptin

**Q.** What about the “effect on body weight (conclusion)” value ([1]; ICR mouse, 100 mg/kg single dose) of the same compound?
**A.** possibly had no effect on body weight

**Q.** And the acute toxicity ([1]; ICR mouse, 100 mg/kg single dose by gavage, one week)?
**A.** did not reflect obvious acute toxicity

**Q.** What about the “body weight versus normal control group (statistics)” value ([1]; ICR mouse, 100 mg/kg single dose, from second day to 7 days, 100 mg/kg) of the same compound?
**A.** significant statistical difference

**Q.** What about the “kidney index versus normal control group (in words)” value ([1]; ICR mouse, 100 mg/kg, 7th day after administration) of the same compound?
**A.** did not significantly differ

**Q.** And the “spleen index versus normal control group (in words)” value ([1]; ICR mouse, 100 mg/kg, 7th day after administration, 100 mg/kg)?
**A.** significantly increased

**Q.** What about the “spleen index versus normal control group (in words)” value ([1]; ICR mouse, 100 mg/kg, 7th day after administration, listed as DC29147, 100 mg/kg) of the same compound?
**A.** statistical difference

**Q.** What about the Kidney index [1, 2] of the same compound?
**A.** 1.5 ± 0.2%

**Q.** And the Liver index [1, 2]?
**A.** 5.3 ± 0.4%

**Q.** And the Spleen index [1, 2]?
**A.** 0.4 ± 0.0 %

**Q.** What about the body weight [1, 3] of the same compound?
**A.** 30.0 ± 1.6 g

**Q.** And the food consumption [1, 3]?
**A.** 18.4 g · day^−1 · cage^−1

**Q.** And the body weight [1, 4]?
**A.** 30.0 ± 1.7 g

**Q.** What about the food consumption [1, 4] of the same compound?
**A.** 18.5 g · day^−1 · cage^−1

**Q.** And the body weight [1, 5]?
**A.** 29.7 ± 1.9 g

**Q.** What about the food consumption [1, 5] of the same compound?
**A.** 19.0 g · day^−1 · cage^−1

**Q.** What about the body weight [1, 6] of the same compound?
**A.** 30.0 ± 1.5 g

**Q.** And the food consumption [1, 6]?
**A.** 19.4 g · day^−1 · cage^−1

**Q.** And the body weight [1, 7]?
**A.** 30.5 ± 1.5 g

**Q.** And the food consumption [1, 7]?
**A.** 22.3 g · day^−1 · cage^−1

**Q.** And the body weight [1, 8]?
**A.** 30.4 ± 1.8 g

**Q.** What about the food consumption [1, 8] of the same compound?
**A.** 22.6 g · day^−1 · cage^−1

**Q.** And the body weight [1, 9]?
**A.** 30.6 ± 1.9 g

**Q.** What about the food consumption [1, 9] of the same compound?
**A.** 23.5 g · day^−1 · cage^−1

**Q.** What about the body weight [1, 10] of the same compound?
**A.** 29.7 ± 1.8 g

**Q.** And the food consumption [1, 10]?
**A.** 21.4 g · day^−1 · cage^−1

— patent publication US9045491B2, “Thienyl [3,2-D] pyrimidin-4-one compounds, preparation method, pharmaceutical compositions and use thereof” (SHANGHAI INSTITUTE OF MATERIA MEDICA, CHINESE ACADEMY OF …, priority 2011, dated 2015)
